# Test results published in patent US8461185B2, “P2X3 receptor antagonists for treatment of pain” (Merck Sharp & Dohme Corp., priority 2007, dated 2013).
# pIC50: −log10 of the molar value.
# Molecular target: T1, human P2X3 (Homo sapiens, UniProt P56373)
# T1 construct: expressed in transfected cells
# T1 sequence (P56373 1-397): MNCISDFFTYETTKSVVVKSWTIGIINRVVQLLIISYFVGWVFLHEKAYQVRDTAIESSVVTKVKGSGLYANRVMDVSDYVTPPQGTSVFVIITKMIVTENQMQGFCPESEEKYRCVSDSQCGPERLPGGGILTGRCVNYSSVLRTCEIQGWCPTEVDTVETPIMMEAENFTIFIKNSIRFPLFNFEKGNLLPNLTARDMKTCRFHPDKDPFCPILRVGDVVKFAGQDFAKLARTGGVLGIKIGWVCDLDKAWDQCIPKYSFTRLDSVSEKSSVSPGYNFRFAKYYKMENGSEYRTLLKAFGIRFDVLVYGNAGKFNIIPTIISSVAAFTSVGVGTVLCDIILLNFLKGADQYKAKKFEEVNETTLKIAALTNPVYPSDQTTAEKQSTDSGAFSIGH
# Experiment: Intracellular Calcium Measurement to Assess Antagonist Affinity (FLIPR, Fluo-4, agonist α,β-meATP)
# Type: cell-based
# Conditions: Intracellular Calcium Measurement to Assess Antagonist Affinity assay; [α,β-meATP]final=EC50
# Description: Generation of a Human P2X3 and P2X2/3 Stable Cell Line—Human P2X3 receptor cDNA (Accession number NM_002559) was subcloned as a 5′XhoI and 3′HindIII fragment into the expression vector pcDNA5/FRT (Invitrogen). Human P2X2 receptor cDNA (Accession number NM_174873) was subcloned as a 5′EcoRI and 3′NotI fragment into the expression vector pIRESneo2 (BD Biosciences Clontech). The human P2X3 expression construct was transfected using Lipofectamine 2000 (Invitrogen) into Flp-in—293 cells (Invitrogen) according to the manufacturer's directions. Cells positive for flp-mediated recombination of […] P2X3 were selected using 150 μg/ml hygromycin. The stable human P2X3 cell line was co-transfected with the human P2X2 expression construct using Lipofectamine 2000 as above and co-transfected cells selected using […] hygromycin and 1 mg/ml G418. The stable P2X3 cell line was propagated in DMEM, 10% FBS, 100 μg/ml hygromycin, and 100 units/ml penicillin and 100 μg/ml streptomycin, and maintained at 37° and 95% humidity. The stable P2X2/3 cell line was propagated as above with the addition of 500 μg/ml G418.
# Intracellular Calcium Measurement to Assess Antagonist Affinity—A fluorescent imaging plate reader (FLIPR; Molecular Devices) was used to monitor intracellular calcium levels using the calcium-chelating dye Fluo-4 (Molecular Probes). The excitation and emission wavelengths used to monitor fluorescence were 488 nm and 530 nm, respectively. Cells expressing either human P2X3 or human P2X2/3 were plated at a density of 20,000 cells/well (20 μl/well) in 384-well black-walled plates approximately 20 hours before beginning the assay. On the day of the assay 20 μl of loading buffer (Hank's balanced salt solution, 2.5 mM CaCl2, 20 mM HEPES, 0.1% BSA, 2.5 mM probenecid, TR-40, Fluo-4, and 138 mM NMDG substituted for NaCl) is added and cells dye-loaded for […] in the dark at room temperature. Ten minutes prior to adding agonist, the antagonist was added in a volume of 10 μl and allowed to incubate at room temperature. During this period fluorescence data is collected at 3 sec intervals followed by 10 sec intervals. The agonist, α,β-meATP, is added at a 6× concentration ([α,β-meATP]final=EC50). Following agonist addition fluorescence was measured at 5 sec intervals and analyzed based on the increase in peak relative fluorescence units (RFU) compared to the basal fluorescence. Peak fluorescence was used to determine the inhibitory effect at each concentration of antagonist by the following equation: % Inhibition=100*(1−((RFU(drug)−RFU(control))/(RFU(DMSO only)−RFU(control))))
row,pIC50,SMILES
1,7.24,"Cc1ccc(-c2cc(C(=O)N[C@H](C)c3ncc(F)cc3F)cc(C3=NOC4(CCC4)C3)c2)nc1 [N-[(1R)-1-(3,5-difluoropyridin-2-yl)ethyl]-3-(5-methylpyridin-2-yl)-5-(5-oxa-6-azaspiro[3.4]oct-6-en-7-yl)benzamide]"
2,8.00,"Cc1ccc(-c2cc(C(=O)N[C@H](C)c3ccc(C(F)(F)F)nc3)cc(C3=NO[C@H](c4ccccn4)C3)c2)nc1 [3-(5-methylpyridin-2-yl)-5-[(5S)-5-pyridin-2-yl-4,5-dihydroisoxazol-3-yl]-N-{(1R)-1-[6-(trifluoromethyl)pyridin-3-yl]ethyl}benzamide]"
3,6.96,"C[C@@H](NC(=O)c1cc(C2=NO[C@H](c3ccccn3)C2)cc(-c2ccc(Cl)cn2)c1)c1ccc(F)cn1 [3-(5-chloropyridin-2-yl)-N-[(1R)-1-(5-fluoropyridin-2-yl)ethyl]-5-[(5S)-5-pyridin-2-yl-4,5-dihydroisoxazol-3-yl]benzamide]"
4,7.70,"Cc1ccc(-c2cc(C(=O)N[C@H](C)c3ccc(F)cn3)cc(C3=NO[C@H](c4ccccn4)C3)c2)nc1 [N-[(1R)-1-(5-fluoropyridin-2-yl)ethyl]-3-(5-methylpyridin-2-yl)-5-[(5S)-5-pyridin-2-yl-4,5-dihydroisoxazol-3-yl]benzamide]"
